Broadly, the melting point is the temperature, or range, at which the solid turns liquid.

Here are results for 1 compound from US20030229072A1, “Cyclic and acyclic amidines and pharmaceutical compositions containing them for use as progesterone receptor binning agents” (priority 2000, published 2003).

Take `Cc1cc([N+](=O)[O-])ccc1/N=C1/C2CC3CC(C2)CC(C3)N1CC(C)C` [Example 54, N-(4-Isobutyl-4-azatricyclo[4.3.1.1^3,8]undec-5-ylidene)-2-methyl-4-nitroaniline]: the melting point lay in the range of 101 to 102 °C.
